In patent US6951916B2, “Melanocortin receptor ligands” (The Procter & Gamble Company, priority 1999, dated 2005):

Key:
MC-4 receptor = target: T1, MC-4 receptor (Homo sapiens, UniProt P32245); assay: BioTrak cAMP direct enzymeimmunoassay in HEK cells stably transfected with MC-1, MC-3 or MC-4 receptors (% cAMP relative to NDP-MSH); assay type: cell-based; conditions: % of maximal cAMP produced by NDP-MSH; concentrations 1×10^−8 to 1×10^−4 molar; HEK cells transfected with MC-1, MC-3 or MC-4
T1 construct: expressed in transfected cells; host or cells: HEK cells (stably transfected)
Description: The NDP-MSH standard was evaluated for the level of c-AMP release at each receptor and the values for the test samples were expressed as a % of the maximal amount produced by NDP-MSH. 1R, 3R, and 4R correspond respectively to the MC-1, MC-3, and MC-4 receptors. The % c-AMP produced by each compound was measured at concentrations from 1×10^−8 to 1×10^−4 molar.
As used herein, “MC-4 agonist” and “MC-3 agonist” refers to a compound with affinity for the MC-4 receptor or MC-3 receptor, respectively, that results in measurable biological activity in cells, tissues, or organisms which contain the MC-4 or MC-3 receptor. […] One particularly useful assay is the BioTrak TM cAMP direct enzymeimmunoassay (EIA) system from Amersham Pharmacia Biotech, which quantitates the cAMP response of cells to MC ligands. This system allows the simple quantitation of total cellular cAMP measurement in cells exposed to selective ligands. Briefly summarized: HEK cells stably transfected with the MC-1, MC-3 or MC-4 receptors are plated into 96 well microtiter plates and grown overnight. Cells are dosed with the appropriate MC ligand for 1 hour and then lysed. A fraction of the lysed cell extract is transferred to the assay plate. The ELISA assay is performed according to kit instructions. Each plate contains a series of cAMP standards for calculating a standard curve, as well as a full MC agonist as a positive control for each MC receptor. cAMP activity is calculated as a % of the maximum cAMP activity of the full MC agonist control.
A compound's selectivity is determined from a comparison of its EC50 values at the relevant receptors being referenced. As used herein, use of the term “selective over the other MC receptors” means selective with respect to all of the MC-1, MC-2 and MC-5 receptors. For example, a compound having an EC50 of 8 nM at the MC-4 receptor and an EC50 of ≧80 nM at the MC-1, MC-2 and MC-5 receptors has a selectivity ratio for the MC-4 receptor over the other MC receptors of at least 1:10. Additionally, it will be recognized that selectivity may also refer to one of the MC-1, MC-2 or MC-5 receptors individually. For example, a compound having an EC50 of 8 nM at the MC-4 receptor and an EC50 of 80 nM at the MC-1 receptor has a selectivity ratio for the MC-4 receptor over the MC-1 receptor of 1:10. Such a compound is selective over the MC-1 receptor, regardless of its EC50 value for MC-2 or MC-5. Selectivity is described in more detail below and may be determined by using, for example, the software Prism v 2.0 which is available from GraphPad, Inc.

[1] = Example A: treatment of an obese human subject to incur weight loss; assay type: in vivo; conditions: obese human 130 kg; intravenous injection once each day for 6 months, 15 ml aqueous solution with 5 mg/ml compound
Description: An obese human subject weighing 130 kg is treated by this method to incur weight loss. Specifically, once each day for a period of 6 months, the subject is administered, via intravenous injection, 15 ml of an aqueous solution comprising the following: […]

T1 sequence (P32245 whole entry): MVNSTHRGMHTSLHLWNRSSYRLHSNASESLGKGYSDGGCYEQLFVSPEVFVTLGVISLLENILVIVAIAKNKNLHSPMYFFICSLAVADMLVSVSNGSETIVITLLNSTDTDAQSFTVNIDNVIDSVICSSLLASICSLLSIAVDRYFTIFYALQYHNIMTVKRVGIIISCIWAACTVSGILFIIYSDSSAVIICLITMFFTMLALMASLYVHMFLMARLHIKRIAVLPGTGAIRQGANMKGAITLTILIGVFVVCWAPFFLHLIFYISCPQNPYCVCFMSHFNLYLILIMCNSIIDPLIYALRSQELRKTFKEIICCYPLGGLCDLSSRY

Substance	selectivity shown by % cAMP activity at various concentrations at MC-1R, MC-3R and MC-4R (MC-4 receptor)	weight loss at the end of the treatment period [1]
Ac-a[EYfRWGK]-NH2 [Example 5]	selectivity of this analog for MC-4R over the MC-3R and MC-1R	–
Ac-a[EYfRWG(Orn)]-NH2 [Example 4]	selectivity of this analog for MC-4R over the MC-3R and MC-1R	–
Ac-aDYfRWGK-NH2 [Example 16]	selectivity of this analog for MC-4R over the MC-3R and MC-1R	–
Ac-[DYfRWGK]-NH2 [Example 2]	selectivity of this analog for MC-4R over the MC-3R and MC-1R	–
Ac-a[DYfRWG(Orn)]-NH2 [Example 31]	selectivity of this analog for MC-4R over MC-1R	–
Ac-aEYfRWG(Orn)-NH2	selectivity of this analog for MC-4R over MC-1R	–
Ac-aDYfRWK-NH2 [Example 14]	selectivity of this analog for MC-4R over MC-1R	–
Ac-a[DYfRWGK]-NH2 [Example 1]	–	measurable weight loss
Ac-NIeDHfRWGK-NH2 [reference compound]	non-selective agonist	–
Ac-SYSNIeEHfRWGKPV-NH2 [reference compound]	non-selective agonist	–
Ac-aDYfRWG(Orn)-NH2 [Example 17]	selectivity of this analog for MC-4R over MC-1R	–
